# Like-named read-outs stand apart in the source and are kept apart here.
# Tests used:
# glucose oxidase (GOx) [1] = target: T1, glucose oxidase (GOx) (Aspergillus niger, UniProt P13006); assay: GOx activity assay, glucose oxidase-horseradish peroxidase coupled system with o-dianisidine; format: biochemical; parameters: purchased Sigma Aldrich; conditions: for 1/Vo: Lineweaver-Burk;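 on GOx activity: GOx activity followed by o-dianisidine absorbance at 500 nm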
# glucose oxidase (GOx) [2] = target: T1, glucose oxidase (GOx); assay: Tryptophan fluorescence emission binding experiments with GOx; parameters: purchased Sigma Aldrich; conditions: for Kd: GOx 0.8 µM, Tris pH 7.8, 5% DMSO, 10 °C
# glucose oxidase (GOx) [3] = target: T1, glucose oxidase (GOx); assay: GOx-DCL in presence of DTNB; parameters: purchased Sigma Aldrich; conditions: large excess of DTNB
# Protocol: The equilibration of the DCL was completed after 24 h (Fig. 9) and the oligomers were identified by HPLC-MS (Supplementary Figs. 4–20). The precise composition of the DCL (with and without GOx), was assessed by measuring the relative peak area (RPA). The normalized change of RPA was used to quantify the protein influence in the final DCL showing the amplification of the dimer of compound 4, that is (4)2 (Fig. 9b). Control experiments were set up to verify that the amplification of the dimer was not due to unspecific binding. Firstly the GOx was replaced by the bovine serum albumin (BSA). A stability study of BSA under the DCL conditions was performed using a fluorescence technique confirming the BSA stability in the DCL experiment (Supplementary Fig. 48)[50].
# % v/v DMSO (266 µL). The DCL was stabilized for 24 hours at 6 °C. Then, BS A was removed by ultracentrifugation thr ough an Amicon ultra -filter (10 KDa) and the solution was analyzed by […]
# GOx-DCL in presence of DTNB.
# GOx- directed DCL: Dithiols 1-2 […]
# To elucídate the type of inhibitor, Lineweaver-Burk plot were performed. GOx activity was measured at increasing concentration s of glucose (0.2 mM to 4 mM) and in presence and absence of (4)2 and DTNB. According to fluorescence s tudies and their Kd’ values, the concentration of the inhibitors were chosen. […]
# IC50 was determined using different concentrations of inhibitors DTNB and (4)2. […]
# apo and holo GOx = target: apo and holo GOx; parameters: method as in PMID 10491329; conditions: apo and holo GOx forms; cited from earlier work
# [4] = [DTNB] 8 uM, Supplementary Figure 52 c
# [5] = [DTNB] 40 uM, Supplementary Figure 52 c
# [6] = [DTNB] 80 uM, Supplementary Figure 52 c
# [7] = [DTNB] 200 uM, Supplementary Figure 52 c
# [8] = [DTNB] 400 uM, Supplementary Figure 52 c
# [9] = [Glucose] 1.6 μM, Supplementary Figure 52 a
# [10] = [Glucose] 32 μM, Supplementary Figure 52 a
# [11] = [Glucose] 48 μM, Supplementary Figure 52 a
# [12] = [Glucose] 400 μM, Supplementary Figure 52 a
# [13] = [Glucose] 800 μM, Supplementary Figure 52 a
# [14] = [Glucose] 2000 μM, Supplementary Figure 52 a
# [15] = [Glucose] 4000 μM, Supplementary Figure 52 a
# [16] = [Glucose] 8000 μM, Supplementary Figure 52 a
# [17] = [Glucose] 12000 μM, Supplementary Figure 52 a
# [18] = [Glucose] 20000 μM, Supplementary Figure 52 a
# T1 sequence (P13006 17-605): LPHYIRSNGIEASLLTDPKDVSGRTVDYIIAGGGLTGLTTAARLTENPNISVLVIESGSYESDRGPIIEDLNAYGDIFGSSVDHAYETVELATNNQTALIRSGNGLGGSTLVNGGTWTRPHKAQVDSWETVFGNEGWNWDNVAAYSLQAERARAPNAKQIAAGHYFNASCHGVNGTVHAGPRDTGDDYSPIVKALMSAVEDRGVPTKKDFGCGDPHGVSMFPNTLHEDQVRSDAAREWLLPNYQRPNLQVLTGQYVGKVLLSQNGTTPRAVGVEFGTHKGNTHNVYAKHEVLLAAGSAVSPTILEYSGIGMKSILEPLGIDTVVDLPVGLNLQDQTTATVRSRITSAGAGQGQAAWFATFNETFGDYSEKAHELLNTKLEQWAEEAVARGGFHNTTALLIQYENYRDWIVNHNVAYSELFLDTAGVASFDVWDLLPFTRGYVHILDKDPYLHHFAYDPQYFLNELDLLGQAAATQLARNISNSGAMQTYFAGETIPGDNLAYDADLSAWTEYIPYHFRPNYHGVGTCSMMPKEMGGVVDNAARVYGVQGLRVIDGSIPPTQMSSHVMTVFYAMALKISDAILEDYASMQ
smiles,measurement,setting,value
"O=C(O)c1cc(SSc2ccc([N+](=O)[O-])c(C(=O)O)c2)ccc1[N+](=O)[O-] [DTNB, 5,5′-dithiobis-2-nitrobenzoic acid, reference compound]",GOx Activity,"glucose oxidase (GOx) [1]; IC50 data, inhibitor 1.4 nM, glucose 10 mM",0.0674 min⁻¹
same,GOx Activity,"glucose oxidase (GOx) [1]; IC50 data, inhibitor 3.5 nM, glucose 10 mM",0.0701 min⁻¹
same,GOx Activity,"glucose oxidase (GOx) [1]; IC50 data, inhibitor 7.0 nM, glucose 10 mM",0.063 min⁻¹
same,GOx Activity,"glucose oxidase (GOx) [1]; IC50 data, inhibitor 14.0 nM, glucose 10 mM",0.0639 min⁻¹
same,GOx Activity,"glucose oxidase (GOx) [1]; IC50 data, inhibitor 70.0 nM, glucose 10 mM",0.0603 min⁻¹
same,GOx Activity,"glucose oxidase (GOx) [1]; IC50 data, inhibitor 140.0 nM, glucose 10 mM",0.0454 min⁻¹
same,GOx Activity,"glucose oxidase (GOx) [1]; IC50 data, inhibitor 700.0 nM, glucose 10 mM",0.0399 min⁻¹
same,GOx Activity,"glucose oxidase (GOx) [1]; IC50 data, inhibitor 1400.0 nM, glucose 10 mM",0.0322 min⁻¹
same,GOx Activity,"glucose oxidase (GOx) [1]; IC50 data, inhibitor 1428571.0 nM, glucose 10 mM",0.0388 min⁻¹
same,GOx Activity,"glucose oxidase (GOx) [1]; Ki data, inhibitor 3,5·10^-8 M, [Glucose] 0.0002 M",0.0024 min⁻¹
same,GOx Activity,"glucose oxidase (GOx) [1]; Ki data, inhibitor 3,5·10^-8 M, [Glucose] 0.0007 M",0.0073 min⁻¹
same,GOx Activity,"glucose oxidase (GOx) [1]; Ki data, inhibitor 3,5·10^-8 M, [Glucose] 0.0014 M",0.013 min⁻¹
same,GOx Activity,"glucose oxidase (GOx) [1]; Ki data, inhibitor 3,5·10^-8 M, [Glucose] 0.0028 M",0.0254 min⁻¹
same,GOx Activity,"glucose oxidase (GOx) [1]; Ki data, inhibitor 3,5·10^-8 M, [Glucose] 0.004 M",0.0298 min⁻¹
same,GOx Activity,"glucose oxidase (GOx) [1]; Ki data, inhibitor 7·10^-8 M, [Glucose] 0.0002 M",0.0022 min⁻¹
same,GOx Activity,"glucose oxidase (GOx) [1]; Ki data, inhibitor 7·10^-8 M, [Glucose] 0.0007 M",0.0054 min⁻¹
same,GOx Activity,"glucose oxidase (GOx) [1]; Ki data, inhibitor 7·10^-8 M, [Glucose] 0.0014 M",0.0121 min⁻¹
same,GOx Activity,"glucose oxidase (GOx) [1]; Ki data, inhibitor 7·10^-8 M, [Glucose] 0.0028 M",0.0197 min⁻¹
same,GOx Activity,"glucose oxidase (GOx) [1]; Ki data, inhibitor 7·10^-8 M, [Glucose] 0.004 M",0.0279 min⁻¹
same,GOx Activity,"glucose oxidase (GOx) [1]; Ki data, inhibitor 14·10^-8 M, [Glucose] 0.0002 M",0.0008 min⁻¹
same,GOx Activity,"glucose oxidase (GOx) [1]; Ki data, inhibitor 14·10^-8 M, [Glucose] 0.0007 M",0.004 min⁻¹
same,GOx Activity,"glucose oxidase (GOx) [1]; Ki data, inhibitor 14·10^-8 M, [Glucose] 0.0014 M",0.0074 min⁻¹
same,GOx Activity,"glucose oxidase (GOx) [1]; Ki data, inhibitor 14·10^-8 M, [Glucose] 0.0028 M",0.015 min⁻¹
same,GOx Activity,"glucose oxidase (GOx) [1]; Ki data, inhibitor 14·10^-8 M, [Glucose] 0.004 M",0.0236 min⁻¹
same,1/Vo,"glucose oxidase (GOx) [1]; inhibitor 0,07 µM, 1/[glucose] 250 M-1",32.9749 min
same,1/Vo,"glucose oxidase (GOx) [1]; inhibitor 0,07 µM, 1/[glucose] 357 M-1",56.0355 min
same,1/Vo,"glucose oxidase (GOx) [1]; inhibitor 0,07 µM, 1/[glucose] 714 M-1",65.6495 min
same,1/Vo,"glucose oxidase (GOx) [1]; inhibitor 0,07 µM, 1/[glucose] 1430 M-1",135.55 min
same,1/Vo,"glucose oxidase (GOx) [1]; inhibitor 0,07 µM, 1/[glucose] 5000 M-1",532.407 min
same,1/Vo,"glucose oxidase (GOx) [1]; inhibitor 0,14 µM, 1/[glucose] 250 M-1",37.1744 min
same,1/Vo,"glucose oxidase (GOx) [1]; inhibitor 0,14 µM, 1/[glucose] 357 M-1",57.2815 min
same,1/Vo,"glucose oxidase (GOx) [1]; inhibitor 0,14 µM, 1/[glucose] 714 M-1",76.102 min
same,1/Vo,"glucose oxidase (GOx) [1]; inhibitor 0,14 µM, 1/[glucose] 1430 M-1",148 min
same,1/Vo,"glucose oxidase (GOx) [1]; inhibitor 0,14 µM, 1/[glucose] 5000 M-1",505.051 min
same,Inhibitor Type,glucose oxidase (GOx) [1]; Lineweaver–Burk plots,non-competitive
same,Ki,"glucose oxidase (GOx) [1]; non-competitive inhibition model, 37 °C, sodium acetate buffer pH 5.1",0.2 ± 0.02 µM
same,Emission Average,glucose oxidase (GOx) [2]; [4],1800741
same,Normalized Fluorescence,glucose oxidase (GOx) [2]; [4],0.1466
same,Emission Average,glucose oxidase (GOx) [2]; [5],955958
same,Normalized Fluorescence,glucose oxidase (GOx) [2]; [5],0.5470
same,Emission Average,glucose oxidase (GOx) [2]; [6],361199
same,Normalized Fluorescence,glucose oxidase (GOx) [2]; [6],0.8288
same,Emission Average,glucose oxidase (GOx) [2]; [7],25171.8
same,Normalized Fluorescence,glucose oxidase (GOx) [2]; [7],0.9881
same,Emission Average,glucose oxidase (GOx) [2]; [8],521.51
same,Normalized Fluorescence,glucose oxidase (GOx) [2]; [8],0.9998
same,Kd,"glucose oxidase (GOx) [2]; apparent dissociation constant, read-out: Kd'",64 ± 2 µM
same,effect on GOx-directed DCL,glucose oxidase (GOx) [3],prevented the amplification of any other ligands except DTNB
OC[C@H]1O[C@@H](O)[C@H](O)[C@@H](O)[C@@H]1O [β-D-glucose],Kd,glucose oxidase (GOx) [2]; read-out: apparent dissociation constant,1100 ± 20 µM
same,Emmsion average,glucose oxidase (GOx) [2]; [9],4205310
same,Normalized Fluorescence,glucose oxidase (GOx) [2]; [9],0.03401
same,Emmsion average,glucose oxidase (GOx) [2]; [10],4080311
same,Normalized Fluorescence,glucose oxidase (GOx) [2]; [10],0.00328
same,Emmsion average,glucose oxidase (GOx) [2]; [11],4060405
same,Normalized Fluorescence,glucose oxidase (GOx) [2]; [11],-0.00162
same,Emmsion average,glucose oxidase (GOx) [2]; [12],4998302
same,Normalized Fluorescence,glucose oxidase (GOx) [2]; [12],0.229
same,Emmsion average,glucose oxidase (GOx) [2]; [13],5886318
same,Normalized Fluorescence,glucose oxidase (GOx) [2]; [13],0.4473
same,Emmsion average,glucose oxidase (GOx) [2]; [14],6538644
same,Normalized Fluorescence,glucose oxidase (GOx) [2]; [14],0.6077
same,Emmsion average,glucose oxidase (GOx) [2]; [15],6499875
same,Normalized Fluorescence,glucose oxidase (GOx) [2]; [15],0.5982
same,Emmsion average,glucose oxidase (GOx) [2]; [16],5944287
same,Normalized Fluorescence,glucose oxidase (GOx) [2]; [16],0.4616
same,Emmsion average,glucose oxidase (GOx) [2]; [17],7469372
same,Normalized Fluorescence,glucose oxidase (GOx) [2]; [17],0.8366
same,Emmsion average,glucose oxidase (GOx) [2]; [18],7323012
same,Normalized Fluorescence,glucose oxidase (GOx) [2]; [18],0.8006
same,Kd,apo and holo GOx,~10000 µM

# Reference: publication PMC7794297
